Laboratory results reported in patent US6737383B1, “Herbicidal oxadiazolidines” (priority 1999, dated 2004).

Tests used:
[1] = tested on: surinam grass; test: Test B pre/postemergence surinam grass; assay type: in vivo, Brachiaria decumbens
In short: (§1)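 Test chemicals in a non-phytotoxic solvent mixture with surfactant were sprayed preemergence onto planted seeds and postemergence onto plants 2 to 18 cm tall (1- to 4-leaf stage). After twelve to sixteen days in a greenhouse, injury was visually rated against untreated controls from 0 (no effect) to 10 (complete control).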

[2] = tested on: wheat; test: Test B pre/postemergence wheat; assay type: in vivo, Triticum aestivum
In short: as §1

[3] = tested on: giant foxtail; test: Test B pre/postemergence giant foxtail; assay type: in vivo, Setaria faberii
In short: as §1

[4] = tested on: rape; test: Test B pre/postemergence rape; assay type: in vivo, Brassica napus
In short: as §1

[5] = tested on: sugar beet; test: Test B pre/postemergence sugar beet; assay type: in vivo, Beta vulgaris
In short: as §1

[6] = tested on: blackgrass; test: Test B pre/postemergence blackgrass; assay type: in vivo, Alopecurus myosuroides
In short: as §1

[7] = tested on: wild oat; test: Test B pre/postemergence wild oat; assay type: in vivo, Avena fatua
In short: as §1

[8] = tested on: corn; test: Test B pre/postemergence corn; assay type: in vivo, Zea mays
In short: as §1

[9] = tested on: bedstraw; test: Test B pre/postemergence bedstraw; assay type: in vivo, Galium aparine
In short: as §1

[10] = tested on: purple nutsedge; test: Test B pre/postemergence purple nutsedge; assay type: in vivo, Cyperus rotundus
In short: as §1

[11] = tested on: crabgrass; test: Test B pre/postemergence crabgrass; assay type: in vivo, Digitaria sanguinalis
In short: as §1

[12] = tested on: morningglory; test: Test B pre/postemergence morningglory; assay type: in vivo, Ipomoea hederacea
In short: as §1

[13] = tested on: cocklebur; test: Test B pre/postemergence cocklebur; assay type: in vivo, Xanthium strumarium
In short: as §1

[14] = tested on: velvetleaf; test: Test B pre/postemergence velvetleaf; assay type: in vivo, Abutilon theophrasti
In short: as §1

[15] = tested on: pigweed; test: Test B pre/postemergence pigweed; assay type: in vivo, Amaranthus retroflexus
In short: as §1

[16] = tested on: soybean; test: Test B pre/postemergence soybean; assay type: in vivo, Glycine max
In short: as §1

[17] = Postemergence, Rate 62 g/ha, scale 0 to 10, 0 is no effect, 10 is complete control
[18] = Postemergence, Rate 125 g/ha, scale of 0 to 10 where 0 is no effect and 10 is complete control
[19] = Postemergence, Rate 250 g/ha, scale of 0 to 10, 0 is no effect, 10 is complete control
[20] = Preemergence, Rate 62 g/ha, scale of 0 to 10 where 0 is no effect and 10 is complete control
[21] = Preemergence, Rate 125 g/ha, scale of 0 to 10 where 0 is no effect and 10 is complete control
[22] = Preemergence, Rate 250 g/ha, scale 0 to 10 (0 no effect, 10 complete control)
[23] = Preemergence, Rate 500 g/ha, scale of 0 to 10 where 0 is no effect and 10 is complete control
[24] = Rate 500 g/ha, Postemergence, scale 0 to 10, 0 is no effect, 10 is complete control

With `CC(C)N(C(=O)n1oc(=O)n(C(CCl)CCl)c1=O)c1ccc(F)cc1` [Compound 672] the “Plant response rating, B. signalgrass” value [1, 17] was 0, the “Plant response rating, B. signalgrass” value [1, 18] was 3 and the “B. signalgrass plant response rating” value [1, 19] was 3. For the same molecule, the “B. signalgrass plant response rating” value [1, 20] was 2, the “Plant response rating, B. signalgrass” value [1, 21] was 4 and the “Plant response rating, B. signalgrass” value [1, 22] was 6. The “Plant response rating, B. signalgrass” value [1, 23] was 8, the “B. signalgrass plant response rating” value [1, 24] was 4 and the “Plant response rating, Wheat” value [2, 17] was 0. The “Wheat plant response rating” value [2, 18] was 0, the “Wheat plant response rating” value [2, 20] was 0 and the “Plant response rating, Wheat” value [2, 21] was 0. The “Plant response rating, Wheat” value [2, 22] was 0, the “Plant response rating, Wheat” value [2, 23] was 0 and the “Wheat plant response rating” value [2, 24] was 0. The “Plant response rating, Giant foxtail” value [3, 17] was 3, the “Giant foxtail plant response rating” value [3, 18] was 5 and the “Giant foxtail plant response rating” value [3, 19] was 8. The “Giant foxtail plant response rating” value [3, 20] was 9, the “Plant response rating, Giant foxtail” value [3, 21] was 10 and the “Plant response rating, Giant foxtail” value [3, 22] was 10. For the same molecule, the “Plant response rating, Giant foxtail” value [3, 23] was 10, the “Giant foxtail plant response rating” value [3, 24] was 9 and the “Plant response rating, Rape” value [4, 17] was 0. For the same molecule, the “Rape plant response rating” value [4, 18] was 3, the “Rape plant response rating” value [4, 20] was 0 and the “Plant response rating, Rape” value [4, 21] was 2. The “Plant response rating, Rape” value [4, 22] was 7, the “Plant response rating, Rape” value [4, 23] was 8 and the “Rape plant response rating” value [4, 24] was 3. For the same molecule, the “Plant response rating, Sugarbeets” value [5, 17] was 0, the “Sugarbeets plant response rating” value [5, 18] was 0 and the “Sugarbeets plant response rating” value [5, 20] was 3. For the same molecule, the “Plant response rating, Sugarbeets” value [5, 21] was 4, the “Plant response rating, Sugarbeets” value [5, 22] was 7 and the “Plant response rating, Sugarbeets” value [5, 23] was 8. For the same molecule, the “Sugarbeets plant response rating” value [5, 24] was 3, the “Plant response rating, Blackgrass” value [6, 17] was 0 and the “Blackgrass plant response rating” value [6, 18] was 2. The “Blackgrass plant response rating” value [6, 19] was 6, the “Blackgrass plant response rating” value [6, 20] was 1 and the “Plant response rating, Blackgrass” value [6, 21] was 3. For the same molecule, the “Plant response rating, Blackgrass” value [6, 22] was 8, the “Plant response rating, Blackgrass” value [6, 23] was 8 and the “Blackgrass plant response rating” value [6, 24] was 6. The “Plant response rating, Wild oats” value [7, 17] was 0, the “Wild oats plant response rating” value [7, 18] was 0 and the “Wild oats plant response rating” value [7, 20] was 0. For the same molecule, the “Plant response rating, Wild oats” value [7, 21] was 4, the “Plant response rating, Wild oats” value [7, 22] was 5 and the “Plant response rating, Wild oats” value [7, 23] was 7. The “Wild oats plant response rating” value [7, 24] was 0, the “Plant response rating, Corn” value [8, 17] was 0 and the “Corn plant response rating” value [8, 18] was 0. The “Corn plant response rating” value [8, 19] was 0, the “Corn plant response rating” value [8, 20] was 0 and the “Plant response rating, Corn” value [8, 21] was 0. The “Plant response rating, Corn” value [8, 22] was 0, the “Plant response rating, Corn” value [8, 23] was 0 and the “Corn plant response rating” value [8, 24] was 0. For the same molecule, the “Bedstraw plant response rating” value [9, 19] was 4, the “Bedstraw plant response rating” value [9, 20] was 0 and the “Plant response rating, Bedstraw” value [9, 21] was 0. For the same molecule, the “Plant response rating, Bedstraw” value [9, 22] was 0, the “Plant response rating, Bedstraw” value [9, 23] was 0 and the “Bedstraw plant response rating” value [9, 24] was 6. For the same molecule, the “Plant response rating, Nutsedge” value [10, 17] was 0, the “Nutsedge plant response rating” value [10, 18] was 0 and the “Nutsedge plant response rating” value [10, 20] was 0. The “Plant response rating, Nutsedge” value [10, 21] was 0, the “Plant response rating, Nutsedge” value [10, 22] was 0 and the “Plant response rating, Nutsedge” value [10, 23] was 0. For the same molecule, the “Nutsedge plant response rating” value [10, 24] was 5, the “Plant response rating, Crabgrass” value [11, 17] was 5 and the “Crabgrass plant response rating” value [11, 18] was 6. For the same molecule, the “Crabgrass plant response rating” value [11, 19] was 7, the “Crabgrass plant response rating” value [11, 20] was 8 and the “Plant response rating, Crabgrass” value [11, 21] was 10. For the same molecule, the “Plant response rating, Crabgrass” value [11, 22] was 10, the “Plant response rating, Crabgrass” value [11, 23] was 10 and the “Crabgrass plant response rating” value [11, 24] was 9. For the same molecule, the “Plant response rating, Morningglory” value [12, 17] was 4, the “Morningglory plant response rating” value [12, 18] was 8 and the “Morningglory plant response rating” value [12, 19] was 8. The “Morningglory plant response rating” value [12, 20] was 0, the “Plant response rating, Morningglory” value [12, 21] was 0 and the “Plant response rating, Morningglory” value [12, 22] was 0. For the same molecule, the “Plant response rating, Morningglory” value [12, 23] was 2, the “Plant response rating, Cocklebur” value [13, 17] was 0 and the “Cocklebur plant response rating” value [13, 18] was 1. For the same molecule, the “Cocklebur plant response rating” value [13, 19] was 2, the “Cocklebur plant response rating” value [13, 20] was 0 and the “Plant response rating, Cocklebur” value [13, 21] was 0. For the same molecule, the “Plant response rating, Cocklebur” value [13, 22] was 0, the “Cocklebur plant response rating” value [13, 24] was 7 and the “Plant response rating, Velvetleaf” value [14, 17] was 6. For the same molecule, the “Velvetleaf plant response rating” value [14, 18] was 6, the “Velvetleaf plant response rating” value [14, 20] was 0 and the “Plant response rating, Velvetleaf” value [14, 21] was 3. For the same molecule, the “Plant response rating, Velvetleaf” value [14, 22] was 3, the “Plant response rating, Velvetleaf” value [14, 23] was 4 and the “Velvetleaf plant response rating” value [14, 24] was 7. For the same molecule, the “Plant response rating, Redroot pigweed” value [15, 17] was 7, the “Redroot pigweed plant response rating” value [15, 20] was 0 and the “Plant response rating, Redroot pigweed” value [15, 21] was 3. The “Plant response rating, Redroot pigweed” value [15, 22] was 7, the “Plant response rating, Redroot pigweed” value [15, 23] was 8 and the “Redroot pigweed plant response rating” value [15, 24] was 8. The “Plant response rating, Soybean” value [16, 17] was 2, the “Soybean plant response rating” value [16, 18] was 2 and the “Soybean plant response rating” value [16, 20] was 0. The “Plant response rating, Soybean” value [16, 21] was 0, the “Plant response rating, Soybean” value [16, 22] was 0 and the “Plant response rating, Soybean” value [16, 23] was 0. For the same molecule, the “Soybean plant response rating” value [16, 24] was 5.
